Numbers after ± are expanded uncertainties.
Conditions: Liquid, Closed cell (Static) method

| Structure (SMILES) | vapor or sublimation pressure (273.17 K) [kPa] | vapor or sublimation pressure (278.17 K) [kPa] | vapor or sublimation pressure (283.16 K) [kPa] | vapor or sublimation pressure (288.16 K) [kPa] | vapor or sublimation pressure (293.15 K) [kPa] | vapor or sublimation pressure (298.15 K) [kPa] | vapor or sublimation pressure (303.15 K) [kPa] | vapor or sublimation pressure (308.15 K) [kPa] | vapor or sublimation pressure (313.15 K) [kPa] | vapor or sublimation pressure (318.15 K) [kPa] | vapor or sublimation pressure (323.15 K) [kPa] | vapor or sublimation pressure (328.15 K) [kPa] | vapor or sublimation pressure (333.15 K) [kPa] | vapor or sublimation pressure (338.14 K) [kPa] | vapor or sublimation pressure (343.14 K) [kPa] | vapor or sublimation pressure (348.13 K) [kPa] | vapor or sublimation pressure (353.13 K) [kPa] | vapor or sublimation pressure (323.14 K) [kPa] | vapor or sublimation pressure (328.14 K) [kPa] | vapor or sublimation pressure (333.14 K) [kPa] |
| --- | --- | --- | --- | --- | --- | --- | --- | --- | --- | --- | --- | --- | --- | --- | --- | --- | --- | --- | --- | --- |
| FCC(F)(F)F [1,1,1,2-tetrafluoroethane] | 294.3 ± 5 | 351.2 ± 5.1 | 415.4 ± 5.1 | 488.2 ± 5.1 | 570.6 ± 5.1 | 664.8 ± 5.2 | 769.2 ± 5.2 | 886 ± 5.3 | 1017.7 ± 5.3 | 1158.1 ± 5.4 | 1317.4 ± 5.5 | 1489.6 ± 5.6 | 1679.7 ± 5.8 | 1889.1 ± 6 | 2118.1 ± 6.2 | 2361.2 ± 6.4 | 2634.6 ± 6.7 | – | – | – |
| C=CC(F)(F)F [1,1,1-trifluoro-2-propene] | 268.8 ± 5 | 318.4 ± 5 | 373.6 ± 5.1 | 437.6 ± 5.1 | 510 ± 5.1 | 590.1 ± 5.1 | 678.2 ± 5.1 | 776.7 ± 5.2 | 883.6 ± 5.2 | 1001.8 ± 5.3 | – | – | – | 1600.5 ± 5.7 | 1785.7 ± 5.8 | 1986.4 ± 6 | 2203.1 ± 6.2 | 1130.4 ± 5.4 | 1274.9 ± 5.5 | 1431.6 ± 5.6 |

From the NIST ThermoML archive (doi:10.1016/j.fluid.2019.06.020)
